Test results reported in US7754911B2, “Method for isolating methyl glycine nitrile-N,N-diacetonitriles from an aqueous crude mixture” (BASF Aktiengesellschaft, priority 2005, dated 2010).

Assay: solubility of MGDN in water (temperature-dependent)
Assay type: physicochemical
Experimental: MGDN has highly temperature-dependent solubility in water. For instance, only about 0.5% by weight of MGDN dissolves at 10° C. in water or an aqueous ammonium sulfate solution. At approx. 60° C., the solubility is still about 5% by weight. Above approx. 60° C., an emulsion of MGDN and its aqueous solution with more than 5% by weight of dissolved MGDN is present. No phase diagram of the water-MGDN system is known.
The MGDN concentration of the aqueous crude product mixture is generally from 3 to 50% by weight, preferably from 15 to 40% by weight, more preferably from 20 to 35% by weight. A content of dissolved MGDN of 1% by weight corresponds to a crystallization temperature of approx. 20° C., a content of dissolved MCDN of 5% by weight to a crystallization temperature of approx. 55° C. At 10° C., the water solubility of MGDN is still about 0.5% by weight.

- water solubility (at 10° C.): about 0.5 % by weight
- solubility (at 10° C. in water or an aqueous ammonium sulfate solution): about 0.5 % by weight
- solubility (at approx. 60° C., in water): about 5 % by weight
- content of dissolved MGDN (corresponds to a crystallization temperature of approx. 20° C.): 1 % by weight
- content of dissolved MGDN (corresponds to a crystallization temperature of approx. 55° C.): 5 % by weight
Compound: CC(C#N)N(CC#N)CC#N (centres unmarked) [MGDN, methylglycinenitrile-N,N-diacetonitrile]
